This is an account of results in article PMC4695389, “Non-classical amine recognition evolved in a large clade of olfactory receptors” (eLife, 2015).

Experiment [1] addresses T1, TAAR12i (Danio rerio, UniProt Q5QNN0, F195V/V105Y/V8A).
T1 sequence (Q5QNN0 1-340 V8A/V105Y/F195V): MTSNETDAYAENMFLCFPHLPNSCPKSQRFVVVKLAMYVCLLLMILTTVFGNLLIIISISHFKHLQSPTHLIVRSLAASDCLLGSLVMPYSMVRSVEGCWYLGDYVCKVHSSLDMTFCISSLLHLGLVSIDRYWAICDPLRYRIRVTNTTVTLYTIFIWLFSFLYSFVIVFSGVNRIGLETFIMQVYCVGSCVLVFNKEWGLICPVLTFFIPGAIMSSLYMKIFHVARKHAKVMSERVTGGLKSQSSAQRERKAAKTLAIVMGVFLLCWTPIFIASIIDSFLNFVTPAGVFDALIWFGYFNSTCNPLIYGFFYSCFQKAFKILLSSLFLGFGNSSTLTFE
The experiment is described as follows: Cre-Seap reporter gene assay, TAAR12i in Hana3A cells. Format: cell-based, zebrafish.

In experiment [2] the target is T2, zebrafish TAAR13c (Danio rerio, UniProt Q5QNP2).
T2 construct: expressed in transfected cells; host or cells: HEK-293
T2 sequence (Q5QNP2 1-341): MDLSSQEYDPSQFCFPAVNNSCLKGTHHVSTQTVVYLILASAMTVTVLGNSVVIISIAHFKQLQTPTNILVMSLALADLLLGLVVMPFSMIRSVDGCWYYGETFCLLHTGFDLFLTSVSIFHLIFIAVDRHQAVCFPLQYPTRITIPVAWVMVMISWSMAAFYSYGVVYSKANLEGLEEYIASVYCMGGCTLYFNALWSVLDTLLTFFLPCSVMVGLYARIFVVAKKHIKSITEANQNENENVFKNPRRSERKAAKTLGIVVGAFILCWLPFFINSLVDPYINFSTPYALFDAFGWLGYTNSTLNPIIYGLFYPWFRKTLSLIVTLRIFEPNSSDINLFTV
The experiment is described as follows: cell-based.

In experiment [3] the target is T3, zebrafish TAAR10a (Danio rerio, UniProt Q5QNP6, I156V/V182I).
T3 sequence (Q5QNP6 1-336 I156V/V182I): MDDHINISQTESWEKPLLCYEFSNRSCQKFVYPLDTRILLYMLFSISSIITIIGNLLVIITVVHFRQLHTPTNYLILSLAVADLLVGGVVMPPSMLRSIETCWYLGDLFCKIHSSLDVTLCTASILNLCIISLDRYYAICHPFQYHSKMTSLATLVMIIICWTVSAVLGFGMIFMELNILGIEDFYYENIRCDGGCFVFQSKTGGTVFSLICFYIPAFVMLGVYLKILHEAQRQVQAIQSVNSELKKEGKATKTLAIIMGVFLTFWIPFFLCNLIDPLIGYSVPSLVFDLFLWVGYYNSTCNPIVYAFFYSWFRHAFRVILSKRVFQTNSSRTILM
The experiment is described as follows: cell-based. Conditions: HEK-293 cells, Cre-Seap reporter.

Experiment [4] has as its system goldfish. Also on record: method as in Rolen, et al., 2003; Hara, 2006. To be noted: ref Rolen, et al., 2003, Hara, 2006; cited from earlier work.
The target of experiment [5] is T4, zebrafish TAAR14d (Danio rerio, UniProt U3JB35).
T4 sequence (U3JB35 1-328): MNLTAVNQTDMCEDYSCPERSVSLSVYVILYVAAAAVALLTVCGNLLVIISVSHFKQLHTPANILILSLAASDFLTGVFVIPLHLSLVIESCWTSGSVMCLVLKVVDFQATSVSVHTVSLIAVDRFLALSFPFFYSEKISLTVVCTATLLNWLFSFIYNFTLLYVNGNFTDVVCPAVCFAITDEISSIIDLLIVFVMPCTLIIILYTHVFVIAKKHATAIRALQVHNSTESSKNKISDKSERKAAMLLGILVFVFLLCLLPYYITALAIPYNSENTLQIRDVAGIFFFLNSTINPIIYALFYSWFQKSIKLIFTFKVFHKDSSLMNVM
The experiment is described as follows: cell-based. Conditions: HEK-293 cells, Cre-Seap reporter.

Experiment [6] addresses T5, zebrafish TAAR13e (Danio rerio, UniProt Q5QNP8, I215V/V266I).
T5 sequence (Q5QNP8 1-341 I215V/V266I): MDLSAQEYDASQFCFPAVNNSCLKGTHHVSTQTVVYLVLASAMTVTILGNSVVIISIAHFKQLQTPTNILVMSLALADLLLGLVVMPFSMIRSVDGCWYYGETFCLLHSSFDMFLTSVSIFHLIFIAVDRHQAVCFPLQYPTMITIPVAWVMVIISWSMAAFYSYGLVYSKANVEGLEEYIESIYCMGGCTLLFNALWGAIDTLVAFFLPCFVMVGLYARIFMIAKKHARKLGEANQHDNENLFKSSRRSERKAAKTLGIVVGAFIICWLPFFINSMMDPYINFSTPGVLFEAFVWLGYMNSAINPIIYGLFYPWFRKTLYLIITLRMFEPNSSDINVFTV
The experiment is described as follows: cell-based. To be noted: HEK-293 cells, Cre-Seap reporter.

Experiment [7] addresses zebrafish TAAR13a (Danio rerio, UniProt Q5QNP9, F294L/F316L/I267M/N226K/T142R). The experiment is described as follows: cell-based. To be noted: HEK-293 cells, Cre-Seap reporter.
For experiment [8], the target named is zebrafish TAAR13d (Danio rerio, UniProt Q5QNQ1, I38V/T66P/V128I/V187I). The experiment is described as follows: cell-based. To be noted: for EC50: HEK-293 cells, Cre-Seap reporter.
In experiment [9] the test system is TAAR16c D^5.42A mutant. The experiment is described as follows: Cre-Seap reporter gene assay, TAAR16c D^5.42A mutant. In kind it is cell-based, zebrafish. Background: In a reporter assay the amount or activity of a reporter protein is the signal.
In experiment [10] the test system is zebrafish. More on the design: method as in Hussain et al., 2013. To be noted: ref Hussain et al., 2013; cited from earlier work.
Experiment [11] addresses T6, TAAR13c^D112A (Danio rerio, UniProt Q5QNP2, D112A).
T6 construct: expressed in transfected cells; host or cells: HEK-293
T6 sequence (Q5QNP2 1-341 D112A): T2 sequence (Q5QNP2 1-341) with D112A
Format: cell-based. To be noted: any concentration tested, up to 1 mM.

For experiment [12], the target named is T7, zebrafish TAAR16f (Danio rerio, UniProt A0AC58GNM0, L317F/N20S/N8I/T68S, form not given).
T7 sequence (A0AC58GNM0 1-331 N8I/N20S/T68S/L317F): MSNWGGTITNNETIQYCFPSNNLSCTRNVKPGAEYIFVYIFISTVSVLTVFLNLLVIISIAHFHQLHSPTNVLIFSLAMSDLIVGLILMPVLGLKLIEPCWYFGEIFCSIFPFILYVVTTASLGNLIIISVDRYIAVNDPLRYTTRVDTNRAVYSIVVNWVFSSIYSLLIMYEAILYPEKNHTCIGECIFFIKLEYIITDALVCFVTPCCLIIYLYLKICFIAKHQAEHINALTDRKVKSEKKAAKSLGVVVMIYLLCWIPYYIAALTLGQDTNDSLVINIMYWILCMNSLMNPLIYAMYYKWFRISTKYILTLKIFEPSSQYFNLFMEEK
In kind it is cell-based. To be noted: for EC50: HEK-293 cells, Cre-Seap reporter.

In experiment [13] the test system is TAAR16f D^5.42A mutant. The experiment is described as follows: Cre-Seap reporter gene assay, TAAR16f D^5.42A mutant. In kind it is cell-based, zebrafish.
The target of experiment [14] is zebrafish TAAR16c (Danio rerio, UniProt A0AC58H3H2, N266T). Format: cell-based.
Experiment [15] has as its target T8, TAAR10b (Danio rerio, UniProt Q5QNN3, A166T/H113R/V182I/V259M).
T8 sequence (Q5QNN3 1-336 H113R/A166T/V182I/V259M): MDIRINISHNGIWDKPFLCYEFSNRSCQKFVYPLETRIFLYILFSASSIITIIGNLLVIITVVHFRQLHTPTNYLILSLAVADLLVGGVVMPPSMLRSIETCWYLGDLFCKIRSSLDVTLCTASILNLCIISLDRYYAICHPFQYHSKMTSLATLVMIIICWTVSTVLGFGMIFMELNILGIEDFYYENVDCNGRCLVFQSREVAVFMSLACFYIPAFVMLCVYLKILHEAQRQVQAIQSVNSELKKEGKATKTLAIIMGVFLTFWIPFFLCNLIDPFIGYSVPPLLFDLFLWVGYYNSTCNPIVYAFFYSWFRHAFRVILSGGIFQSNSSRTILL
The experiment is described as follows: Cre-Seap reporter gene assay, TAAR10b in Hana3A cells. In kind it is cell-based, zebrafish.

Positions count from the first letter of the chain named. Where “and” joins values, the source holds several entries; their conditions need not be identical. Identical values can stand only once. Entries after “also recorded” stand apart in the source; their conditions may differ. Like-named read-outs stand apart in the source and are kept apart here.

Chain of zebrafish TAAR16c (A0AC58H3H2 entry or part of it N266T): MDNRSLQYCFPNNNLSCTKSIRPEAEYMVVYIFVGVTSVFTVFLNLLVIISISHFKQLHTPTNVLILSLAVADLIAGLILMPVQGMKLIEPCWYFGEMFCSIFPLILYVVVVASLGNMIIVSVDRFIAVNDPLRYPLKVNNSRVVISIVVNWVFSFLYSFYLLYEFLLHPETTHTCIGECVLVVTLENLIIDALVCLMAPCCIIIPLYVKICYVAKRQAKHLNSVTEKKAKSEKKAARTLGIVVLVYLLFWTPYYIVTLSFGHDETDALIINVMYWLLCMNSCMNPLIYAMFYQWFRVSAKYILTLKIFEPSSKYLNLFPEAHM
Chain of zebrafish TAAR13d (Q5QNQ1 entry or part of it I38V/T66P/V128I/V187I): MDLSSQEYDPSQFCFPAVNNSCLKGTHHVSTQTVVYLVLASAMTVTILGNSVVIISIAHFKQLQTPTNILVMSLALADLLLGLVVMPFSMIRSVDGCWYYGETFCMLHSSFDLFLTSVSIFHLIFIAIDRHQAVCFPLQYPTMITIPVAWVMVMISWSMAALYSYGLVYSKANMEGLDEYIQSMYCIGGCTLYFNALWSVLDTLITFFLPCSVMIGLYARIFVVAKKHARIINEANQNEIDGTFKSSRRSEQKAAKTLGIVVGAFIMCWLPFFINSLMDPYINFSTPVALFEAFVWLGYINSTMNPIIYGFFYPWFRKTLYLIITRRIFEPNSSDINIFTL
Chain of zebrafish TAAR13a (Q5QNP9 1-341 T142R/N226K/I267M/F294L/F316L): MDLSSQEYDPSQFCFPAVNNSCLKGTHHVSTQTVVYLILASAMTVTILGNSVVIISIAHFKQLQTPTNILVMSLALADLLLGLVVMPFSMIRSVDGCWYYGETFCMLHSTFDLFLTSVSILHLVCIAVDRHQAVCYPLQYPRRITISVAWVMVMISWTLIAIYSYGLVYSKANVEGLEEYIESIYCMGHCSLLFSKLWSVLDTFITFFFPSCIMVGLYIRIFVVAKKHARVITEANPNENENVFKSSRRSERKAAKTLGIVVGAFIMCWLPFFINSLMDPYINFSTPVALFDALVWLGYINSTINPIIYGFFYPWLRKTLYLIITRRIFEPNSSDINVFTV

The term EC50 denotes the concentration that produces a half-maximal response. In [1], `COc1cc(CCN)ccc1O` [3-methoxytyramine] came in with an EC50 of 100 µM. In addition, the “activation of wild type TAAR13c” value in experiment [2] (any concentration tested) is “failed to activate”.

For the compound `COc1ccc2[nH]cc(CCN)c2c1` [5-methoxytryptamine], the EC50 in experiment [3] (EC50, TAAR10a) is around 20 µM.

In the case of `NCCCCN=C(N)N` [Agmatine], the feeding-associated pecking behavior result in experiment [4] is “increase feeding-associated pecking behavior”. In addition, the EC50 was ~100 µM and 100 µM in [5]; ~1 µM and 1 µM in [6].

Regarding `NCCc1c[nH]cn1` [Histamine], the EC50 was ~20 µM and 20 µM in [7]; around 7 µM in experiment [8].

`CN1CCCCC1` [N-methylpiperidine]: the “response of TAAR16c with charge-neutralizing mutation of Asp^5.42” value in [9] is given as “completely eliminated responses”.

For `NCCCCCN` [cadaverine], in experiment [4], the feeding-associated pecking behavior entry is on record as “increase feeding-associated pecking behavior”. For the same compound, the EC50 in [2] (HEK-293 cells, Cre-Seap reporter, read-out: EC50 (half maximal response), TAAR13c) is ~10 µM and 10 µM. In addition, the avoidance behavior entry in experiment [10] is on record as “evoke avoidance behavior”. Moreover, the “activation of TAAR13c D112A mutant” value in experiment [11] is “abrogates cadaverine responsiveness; also recorded: failed to activate”.

As for `NCCCN` [diaminopropane], the “reduced sensitivity of TAAR13d relative to putrescine” value in [8] (compared with putrescine) is given as ~ 3,000 fold.

For `CC(C)CCO` [isoamyl alcohol], in [12], the “detection by TAAR16f” value is recorded as “failed to detect” and the “recognition by TAAR16f at 1 mM” value is on record as “not”.

As for `CC(C)CCN` [isoamylamine], the “recognition by TAAR16f at 1 mM” value in experiment [12] (1 mM) is on record as “recognizes”. Also, the concentration giving a half-maximal response (EC50) in experiment [12] was around 200 µM; in experiment [12] (listed as Isoamylamine), 200 µM. Also, the “response of TAAR16f with charge-neutralizing mutation of Asp^5.42” value in experiment [13] is “completely eliminated responses”.

As to `C1CCNCC1` [piperidine], the “agonism of TAAR16c” value in experiment [14] was “partial agonists”.

With `NCCCCN` [putrescine], the feeding-associated pecking behavior result in [4] was “increase feeding-associated pecking behavior”. Further, the avoidance behavior result in [10] is listed as “evoke avoidance behavior”. Further, the EC50 in [8] was ~1 µM and 1 µM.

Take `C1CCNC1` [pyrrolidine]: the “agonism of TAAR16c” value in experiment [14] (any concentration tested) is “partial agonists”.

As to `NCCc1c[nH]c2ccc(O)cc12` [serotonin], the EC50 in experiment [3] (read-out: EC50, TAAR10a) was ~0.5 µM and 0.5 µM.

`C1CCOC1` [tetrahydrofuran]: the “agonism of TAAR16c” value in experiment [14] is “did not activate”.

As for `NCCc1c[nH]c2ccccc12` [tryptamine], the EC50 in experiment [3] (read-out: EC50, TAAR10a) was around 70 µM; in [15], 50 µM.
